# Measured values reported in patent US6737383B1, “Herbicidal oxadiazolidines” (priority 1999, dated 2004).
# How the values were obtained:
# [1] = test system: bedstraw; experiment: Test B pre/postemergence bedstraw; format: in vivo, Galium aparine
# How it was run: (§1)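 Herbicidal effect was estimated by eye on a ten-point control scale after plants spent twelve to sixteen days in a greenhouse following soil or foliar treatment. Foliar sprays targeted plants at one to four leaves; all doses were formulated in a non-phytotoxic solvent with surfactant.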
# [2] = test system: blackgrass; experiment: Test B pre/postemergence blackgrass; format: in vivo, Alopecurus myosuroides
# How it was run: as §1
# [3] = test system: surinam grass; experiment: Test B pre/postemergence surinam grass; format: in vivo, Brachiaria decumbens
# How it was run: as §1
# [4] = test system: cocklebur; experiment: Test B pre/postemergence cocklebur; format: in vivo, Xanthium strumarium
# How it was run: as §1
# [5] = test system: corn; experiment: Test B pre/postemergence corn; format: in vivo, Zea mays
# How it was run: as §1
# [6] = test system: crabgrass; experiment: Test B pre/postemergence crabgrass; format: in vivo, Digitaria sanguinalis
# How it was run: as §1
# [7] = test system: giant foxtail; experiment: Test B pre/postemergence giant foxtail; format: in vivo, Setaria faberii
# How it was run: as §1
# [8] = test system: morningglory; experiment: Test B pre/postemergence morningglory; format: in vivo, Ipomoea hederacea
# How it was run: as §1
# [9] = test system: pigweed; experiment: Test B pre/postemergence pigweed; format: in vivo, Amaranthus retroflexus
# How it was run: as §1
# [10] = test system: rape; experiment: Test B pre/postemergence rape; format: in vivo, Brassica napus
# How it was run: as §1
# [11] = test system: soybean; experiment: Test B pre/postemergence soybean; format: in vivo, Glycine max
# How it was run: as §1
# [12] = test system: sugar beet; experiment: Test B pre/postemergence sugar beet; format: in vivo, Beta vulgaris
# How it was run: as §1
# [13] = test system: velvetleaf; experiment: Test B pre/postemergence velvetleaf; format: in vivo, Abutilon theophrasti
# How it was run: as §1
# [14] = test system: wheat; experiment: Test B pre/postemergence wheat; format: in vivo, Triticum aestivum
# How it was run: as §1
# [15] = test system: wild oat; experiment: Test B pre/postemergence wild oat; format: in vivo, Avena fatua
# How it was run: as §1
# [16] = test system: purple nutsedge; experiment: Test B pre/postemergence purple nutsedge; format: in vivo, Cyperus rotundus
# How it was run: as §1
# [17] = Preemergence, Rate 62 g/ha, scale of 0 to 10 where 0 is no effect and 10 is complete control
# [18] = Preemergence, Rate 125 g/ha, scale of 0 to 10 where 0 is no effect and 10 is complete control
# [19] = Preemergence, Rate 250 g/ha, scale 0 (no effect) to 10 (complete control)
# [20] = Preemergence, Rate 500 g/ha, scale of 0 to 10 where 0 is no effect and 10 is complete control
# [21] = Postemergence, Rate 125 g/ha, scale 0 to 10, 0 is no effect, 10 is complete control
# [22] = Preemergence, Rate 62 g/ha, scale 0 to 10 (0 no effect, 10 complete control)
# [23] = Preemergence, Rate 125 g/ha, scale 0 to 10, 0 is no effect, 10 is complete control
# [24] = Rate 250 g/ha, Postemergence, scale of 0 to 10 where 0 is no effect and 10 is complete control
# [25] = Postemergence, Rate 62 g/ha, scale of 0 to 10, 0 is no effect, 10 is complete control
# [26] = Postemergence, Rate 500 g/ha, scale 0 to 10, 0 is no effect, 10 is complete control
smiles,measurement,setting,value
CC(C)N(C(=O)n1oc(=O)n(C(CF)CCl)c1=O)c1ccc(F)cc1 (racemic) [Compound 707],Bedstraw plant response rating,[1]; [17],7
same,"Plant response rating, Bedstraw",[1]; [18],7
same,Bedstraw plant response rating,[1]; [19],10
same,"Plant response rating, Bedstraw",[1]; [20],10
same,Blackgrass plant response rating,[2]; [17],9
same,"Plant response rating, Blackgrass",[2]; [18],10
same,Blackgrass plant response rating,[2]; [19],10
same,"Plant response rating, Blackgrass",[2]; [20],10
same,B. signalgrass plant response rating,[3]; [17],6
same,"Plant response rating, B. signalgrass",[3]; [18],7
same,B. signalgrass plant response rating,[3]; [19],9
same,"Plant response rating, B. signalgrass",[3]; [20],10
same,Cocklebur plant response rating,[4]; [17],0
same,"Plant response rating, Cocklebur",[4]; [18],0
same,Cocklebur plant response rating,[4]; [19],0
same,"Plant response rating, Cocklebur",[4]; [20],0
same,Corn plant response rating,[5]; [17],0
same,"Plant response rating, Corn",[5]; [18],0
same,Corn plant response rating,[5]; [19],2
same,Crabgrass plant response rating,[6]; [17],5
same,"Plant response rating, Crabgrass",[6]; [18],9
same,Crabgrass plant response rating,[6]; [19],9
same,Giant foxtail plant response rating,[7]; [17],6
same,"Plant response rating, Giant foxtail",[7]; [18],10
same,Giant foxtail plant response rating,[7]; [19],10
same,Morningglory plant response rating,[8]; [17],3
same,"Plant response rating, Morningglory",[8]; [18],3
same,Morningglory plant response rating,[8]; [19],4
same,"Plant response rating, Redroot pigweed",[9]; [18],10
same,Redroot pigweed plant response rating,[9]; [19],10
same,Rape plant response rating,[10]; [17],8
same,"Plant response rating, Rape",[10]; [18],8
same,Rape plant response rating,[10]; [19],10
same,Soybean plant response rating,[11]; [17],0
same,"Plant response rating, Soybean",[11]; [18],0
same,Soybean plant response rating,[11]; [19],0
same,Sugarbeets plant response rating,[12]; [17],6
same,"Plant response rating, Sugarbeets",[12]; [18],6
same,Sugarbeets plant response rating,[12]; [19],8
same,Velvetleaf plant response rating,[13]; [17],3
same,"Plant response rating, Velvetleaf",[13]; [18],5
same,Velvetleaf plant response rating,[13]; [19],5
same,Wheat plant response rating,[14]; [17],2
same,"Plant response rating, Wheat",[14]; [18],2
same,Wheat plant response rating,[14]; [19],2
same,Wild oats plant response rating,[15]; [17],8
same,"Plant response rating, Wild oats",[15]; [18],8
same,Wild oats plant response rating,[15]; [19],9
same,Nutsedge plant response rating,[16]; [17],0
same,"Plant response rating, Nutsedge",[16]; [18],0
same,Nutsedge plant response rating,[16]; [19],0
CC(=O)OCCCCn1c(=O)on(C(=O)N(c2ccc(Cl)cc2)C(C)C)c1=O [Compound 536],Bedstraw plant response rating,[1]; [21],0
same,Bedstraw plant response rating,[1]; [22],0
same,Bedstraw plant response rating,[1]; [23],0
same,Bedstraw plant response rating (0 to 10 scale),"[1]; Preemergence, Rate 250 g/ha",0
same,Bedstraw plant response rating,[1]; [20],0
same,"Plant response rating, Bedstraw",[1]; [24],0
same,Blackgrass plant response rating,[2]; [25],0
same,Blackgrass plant response rating,[2]; [21],0
same,"Plant response rating, Blackgrass",[2]; [26],0
same,Blackgrass plant response rating,[2]; [22],0
same,Blackgrass plant response rating,[2]; [23],0
same,Blackgrass plant response rating (0 to 10 scale),"[2]; Preemergence, Rate 250 g/ha",0
same,Blackgrass plant response rating,[2]; [20],0
same,"Plant response rating, Blackgrass",[2]; [24],0
same,B. signalgrass plant response rating,[3]; [25],0
same,B. signalgrass plant response rating,[3]; [21],0
same,"Plant response rating, B. signalgrass",[3]; [26],0
same,B. signalgrass plant response rating,[3]; [22],0
same,B. signalgrass plant response rating,[3]; [23],0
same,"B. signalgrass plant response rating (0 to 10 scale, 0 is no effect, 10 is complete control)","[3]; Preemergence, Rate 250 g/ha",0
same,B. signalgrass plant response rating,[3]; [20],0
same,"Plant response rating, B. signalgrass",[3]; [24],0
same,Cocklebur plant response rating,[4]; [25],0
same,Cocklebur plant response rating,[4]; [21],0
same,"Plant response rating, Cocklebur",[4]; [26],0
same,Cocklebur plant response rating,[4]; [22],0
same,Cocklebur plant response rating,[4]; [23],0
same,Cocklebur plant response rating (0 to 10 scale),"[4]; Preemergence, Rate 250 g/ha",0
same,Cocklebur plant response rating,[4]; [20],0
same,"Plant response rating, Cocklebur",[4]; [24],0
same,Corn plant response rating,[5]; [25],0
same,Corn plant response rating,[5]; [21],0
same,"Plant response rating, Corn",[5]; [26],0
same,Corn plant response rating,[5]; [22],0
same,Corn plant response rating,[5]; [23],0
same,Corn plant response rating (0 to 10 scale),"[5]; Preemergence, Rate 250 g/ha",0
same,Corn plant response rating,[5]; [20],0
same,"Plant response rating, Corn",[5]; [24],0
same,Crabgrass plant response rating,[6]; [25],0
same,Crabgrass plant response rating,[6]; [21],5
same,"Plant response rating, Crabgrass",[6]; [26],3
same,Crabgrass plant response rating,[6]; [22],0
same,Crabgrass plant response rating,[6]; [23],0
same,Crabgrass plant response rating (0 to 10 scale),"[6]; Preemergence, Rate 250 g/ha",0
same,Crabgrass plant response rating,[6]; [20],2
same,"Plant response rating, Crabgrass",[6]; [24],5
same,Giant foxtail plant response rating,[7]; [25],0
same,Giant foxtail plant response rating,[7]; [21],0
same,"Plant response rating, Giant foxtail",[7]; [26],0
same,Giant foxtail plant response rating,[7]; [22],7
same,Giant foxtail plant response rating,[7]; [23],9
same,Giant foxtail plant response rating (0 to 10 scale),"[7]; Preemergence, Rate 250 g/ha",10
same,Giant foxtail plant response rating,[7]; [20],10
same,"Plant response rating, Giant foxtail",[7]; [24],0
same,Morningglory plant response rating,[8]; [25],2
same,Morningglory plant response rating,[8]; [21],2
same,"Plant response rating, Morningglory",[8]; [26],2
same,Morningglory plant response rating,[8]; [22],0
same,Morningglory plant response rating,[8]; [23],0
same,"Plant response rating, Morningglory",[8]; [24],2
same,Redroot pigweed plant response rating,[9]; [25],0
same,Redroot pigweed plant response rating,[9]; [21],0
same,"Plant response rating, Redroot pigweed",[9]; [26],8
same,Redroot pigweed plant response rating,[9]; [22],0
same,Redroot pigweed plant response rating,[9]; [23],0
same,Redroot pigweed plant response rating (0 to 10 scale),"[9]; Preemergence, Rate 250 g/ha",0
same,Redroot pigweed plant response rating,[9]; [20],0
same,"Plant response rating, Redroot pigweed",[9]; [24],0
same,Rape plant response rating,[10]; [25],0
same,Rape plant response rating,[10]; [21],0
same,"Plant response rating, Rape",[10]; [26],0
same,Rape plant response rating,[10]; [22],0
same,Rape plant response rating,[10]; [23],0
same,Rape plant response rating (0 to 10 scale),"[10]; Preemergence, Rate 250 g/ha",0
same,Rape plant response rating,[10]; [20],0
same,"Plant response rating, Rape",[10]; [24],0
same,Soybean plant response rating,[11]; [25],2
same,Soybean plant response rating,[11]; [21],4
same,"Plant response rating, Soybean",[11]; [26],6
same,Soybean plant response rating,[11]; [22],0
same,Soybean plant response rating,[11]; [23],0
same,Soybean plant response rating (0 to 10 scale),"[11]; Preemergence, Rate 250 g/ha",0
same,Soybean plant response rating,[11]; [20],0
same,"Plant response rating, Soybean",[11]; [24],4
same,Sugarbeets plant response rating,[12]; [25],0
same,Sugarbeets plant response rating,[12]; [21],0
same,"Plant response rating, Sugarbeets",[12]; [26],0
same,Sugarbeets plant response rating,[12]; [22],0
same,Sugarbeets plant response rating,[12]; [23],0
same,Sugarbeets plant response rating (0 to 10 scale),"[12]; Preemergence, Rate 250 g/ha",2
same,Sugarbeets plant response rating,[12]; [20],3
same,"Plant response rating, Sugarbeets",[12]; [24],0
same,Velvetleaf plant response rating,[13]; [25],0
same,Velvetleaf plant response rating,[13]; [21],0
same,"Plant response rating, Velvetleaf",[13]; [26],0
same,Velvetleaf plant response rating,[13]; [22],0
same,Velvetleaf plant response rating,[13]; [23],0
same,Velvetleaf plant response rating (0 to 10 scale),"[13]; Preemergence, Rate 250 g/ha",0
same,Velvetleaf plant response rating,[13]; [20],0
same,"Plant response rating, Velvetleaf",[13]; [24],0
same,Wheat plant response rating,[14]; [25],0
same,Wheat plant response rating,[14]; [21],0
same,"Plant response rating, Wheat",[14]; [26],0
same,Wheat plant response rating,[14]; [22],0
same,Wheat plant response rating,[14]; [23],0
same,Wheat plant response rating (0 to 10 scale),"[14]; Preemergence, Rate 250 g/ha",0
same,Wheat plant response rating,[14]; [20],0
same,"Plant response rating, Wheat",[14]; [24],0
same,Wild oats plant response rating,[15]; [25],0
same,Wild oats plant response rating,[15]; [21],0
same,"Plant response rating, Wild oats",[15]; [26],0
same,Wild oats plant response rating,[15]; [22],0
same,Wild oats plant response rating,[15]; [23],0
same,Wild oats plant response rating (0 to 10 scale),"[15]; Preemergence, Rate 250 g/ha",0
same,Wild oats plant response rating,[15]; [20],0
same,"Plant response rating, Wild oats",[15]; [24],0
same,Nutsedge plant response rating,[16]; [25],0
same,Nutsedge plant response rating,[16]; [21],0
same,"Plant response rating, Nutsedge",[16]; [26],0
same,Nutsedge plant response rating,[16]; [22],0
same,Nutsedge plant response rating,[16]; [23],0
same,Nutsedge plant response rating (0 to 10 scale),"[16]; Preemergence, Rate 250 g/ha",0
same,Nutsedge plant response rating,[16]; [20],0
same,"Plant response rating, Nutsedge",[16]; [24],0
